The nature of series [1]: Tissue distribution of alpha-tocopherol and alpha-tocopherol ester in rats. The class given is in vivo, rat.
The test system of a further series is L1210 leukemia cells. The settings on record: 100 mg/kg ip.
Where [2] appears, read: (b) ip, peanut oil and ETOH, 1 dose 100 mg/kg, 24 h.
Setting [3] is: (e) iv, liposomes, 1 dose 100 mg/kg, 24 h.
The mark [4] stands for this setting: (f) ip, olive oil, 7 daily doses.

Each structure is given as a SMILES string. Structures can show the parent of a compound that is named as a salt.

In the case of `Cc1c(C)c2c(c(C)c1OC(=O)CCC(=O)O)CC[C@@](C)(CCC[C@H](C)CCC[C@H](C)CCCC(C)C)O2` [alpha-TS, d-alpha-tocopheryl succinate], the “Liver Concentration Ester” value in series [1] (100 mg/kg ip, 24 h) is 119 ± 16 nmol/g. Moreover, in series [1] (setting [2]), the “alpha-TS, Blood” value is recorded as 7 nmoles/gm of Tissue; the “alpha-TS, Heart” value is 47 nmoles/gm of Tissue; the “alpha-TS, Kidney” value is listed as 31 nmoles/gm of Tissue; the “alpha-TS, Liver” value is 119 nmoles/gm of Tissue. In addition, in series [1] (setting [2]), the “alpha-TS, Lung” value is 90 nmoles/gm of Tissue and the “alpha-TS, Plasma” value is 8 nmoles/gm of Tissue. For the same molecule, in series [1] (setting [3]), the “alpha-TS, Blood” value is 6 nmoles/gm of Tissue; the “alpha-TS, Heart” value is on record as 10 nmoles/gm of Tissue; the “alpha-TS, Liver” value is 322 nmoles/gm of Tissue; the “alpha-TS, Lung” value is 4843 nmoles/gm of Tissue. The “alpha-TS, Plasma” value in series [1] (setting [3]) is 5 nmoles/gm of Tissue. In series [1] (setting [4]), the “alpha-TS, Blood” value is 15 nmoles/gm of Tissue; the “alpha-TS, Brain” value is on record as 6 nmoles/gm of Tissue; the “alpha-TS, Heart” value is 34 nmoles/gm of Tissue; the “alpha-TS, Kidney” value is on record as 44 nmoles/gm of Tissue. Moreover, in series [1] (setting [4]), the “alpha-TS, Liver” value is recorded as 161 nmoles/gm of Tissue and the “alpha-TS, Lung” value is reported as 128 nmoles/gm of Tissue. For the same molecule, the “accumulation of hepatic alpha-TS” value in series [1] (oral) is “elimination of both the accumulation of hepatic alpha-TS and protection against CCl4 lethality”.
For the molecule `CC(C)CCC[C@@H](C)[C@H]1CC[C@H]2[C@@H]3CC=C4C[C@@H](OC(=O)CCC(=O)O)CC[C@]4(C)[C@H]3CC[C@]12C` [Cholesteryl Succinate tris salt], the “Survival Time” value in the series with L1210 leukemia cells is recorded as 6.8 ± 0.4 days.

These data come from patent US5336485A, “Method for protecting animals against tacrine induced cytotoxic injury using sterol compounds” (priority 1993, dated 1994).
